Columns and labels:
[1] = molecular target: Dual specificity mitogen-activated protein kinase kinase 1 (Homo sapiens) (UniProt Q02750); assay: Inhibition of human MEK1 assessed as residual activity at 10 uM using ERK2 as substrate preincubated for 20 mins followed by [gamma-33P]-ATP addition and measured after 120 mins by Hotspot assay relative to control
MV4-11 [2] = assay: Induction of apoptosis in human MV4-11 cells assessed as late apoptotic cells at 0.2 uM after 24 hrs by Annexin V-FITC/propidium iodide staining based flow cytometric analysis (reference value: 1.42%); format: functional
[3] = molecular target: Mitogen-activated protein kinase 1 (Homo sapiens) (UniProt P28482); assay: Inhibition of human ERK2 assessed as residual activity at 10 uM using MBP as substrate preincubated for 20 mins followed by [gamma-33P]-ATP addition and measured after 120 mins by Hotspot assay relative to control
[4] = molecular target: Serine/threonine-protein kinase Chk1 (Homo sapiens, UniProt O14757); assay: Inhibition of human CHK1 using KKKVSRSGLYRSPSMPENLNRPR as substrate preincubated for 20 mins followed by [gamma-33P]-ATP addition and measured after 120 mins by Hotspot assay
[5] = Half life in human liver microsomes at 1 uM after 5 to 60 mins in presence of NADPH by LC-MS/MS analysis; format: ADME, Microsome
MV4-11 [6] = assay: Induction of apoptosis in human MV4-11 cells assessed as viable cells at 0.2 uM after 24 hrs by Annexin V-FITC/propidium iodide staining based flow cytometric analysis (reference value: 95.19%); format: functional; settings: MV4-11, 24 h, read-out: Activity
MV4-11 [7] = assay: Induction of apoptosis in human MV4-11 cells assessed as late apoptotic cells at 0.5 uM after 24 hrs by Annexin V-FITC/propidium iodide staining based flow cytometric analysis (reference value: 1.42%); format: functional
[8] = molecular target: Hepatocyte growth factor receptor (Homo sapiens) (UniProt P08581); assay: Inhibition of human c-MET assessed as residual activity at 10 uM using KKKSPGEYVNIEFG as substrate preincubated for 20 mins followed by [gamma-33P]-ATP addition and measured after 120 mins by Hotspot assay relative to control
[9] = molecular target: Proto-oncogene tyrosine-protein kinase Src (Homo sapiens, UniProt P12931); assay: Inhibition of human c-SRC assessed as residual activity at 10 uM using poly[Glu:Tyr] (4:1) as substrate preincubated for 20 mins followed by [gamma-33P]-ATP addition and measured after 120 mins by Hotspot assay relative to control
[10] = molecular target: Macrophage colony-stimulating factor 1 receptor (Homo sapiens, UniProt P07333); assay: Binding affinity to wild-type human partial length autoinhibited CSF1R (Y538 to S939 residues) expressed in mammalian expression system after 60 mins by Kinomescan method
MV4-11 [11] = assay: Induction of apoptosis in human MV4-11 cells assessed as viable cells at 0.05 uM after 24 hrs by Annexin V-FITC/propidium iodide staining based flow cytometric analysis (reference value: 95.19%); format: functional; settings: MV4-11, 24 h, read-out: Activity
[12] = Half life in rat liver microsomes at 1 uM after 5 to 60 mins in presence of NADPH by LC-MS/MS analysis; format: ADME, Microsome
K562 = assay: Growth inhibition of FLT3 null human K562 cells at 10 uM after 72 hrs by CellTiter-Glo assay relative to control; format: functional; settings: K562, 72 h, read-out: GI
MV4-11 [13] = assay: Growth inhibition of human MV4-11 cells harboring FLT3 ITD mutant at 10 uM after 72 hrs by CellTiter-Glo assay relative to control; format: functional; settings: MV4-11, 72 h, read-out: GI
MV4-11 [14] = assay: Induction of apoptosis in human MV4-11 cells after 24 hrs by Annexin V-FITC/propidium iodide staining based flow cytometric analysis; format: functional, cell-based
[15] = molecular target: Platelet-derived growth factor receptor alpha (Homo sapiens, UniProt P16234); assay: Inhibition of human PDGFRalpha using poly[Glu:Tyr] (4:1) as substrate preincubated for 20 mins followed by [gamma-33P]-ATP addition and measured after 120 mins by Hotspot assay
MV4-11 [16] = assay: Induction of apoptosis in human MV4-11 cells assessed as viable cells at 0.02 uM after 24 hrs by Annexin V-FITC/propidium iodide staining based flow cytometric analysis (reference value: 95.19%); format: functional; settings: MV4-11, 24 h, read-out: Activity
MV4-11 [17] = assay: Induction of apoptosis in human MV4-11 cells assessed as early apoptotic cells at 0.2 uM after 24 hrs by Annexin V-FITC/propidium iodide staining based flow cytometric analysis (reference value: 3.39%); format: functional
MV4-11 [18] = assay: Induction of apoptosis in human MV4-11 cells assessed as late apoptotic cells at 0.02 uM after 24 hrs by Annexin V-FITC/propidium iodide staining based flow cytometric analysis (reference value: 1.42%); format: functional
MV4-11 [19] = assay: Induction of apoptosis in human MV4-11 cells assessed as viable cells at 0.1 uM after 24 hrs by Annexin V-FITC/propidium iodide staining based flow cytometric analysis (reference value: 95.19%); format: functional; settings: MV4-11, 24 h, read-out: Activity
[20] = molecular target: Cyclin-dependent kinase 5/CDK5 activator 1 (Homo sapiens) (UniProt Q00535+Q15078); assay: Inhibition of human CDK5/p25 assessed as residual activity at 10 uM using histone H1 as substrate preincubated for 20 mins followed by [gamma-33P]-ATP addition and measured after 120 mins by Hotspot assay relative to control; format: protein-complex assay
[21] = molecular target: Tyrosine-protein kinase ABL1 (Homo sapiens, UniProt P00519, F317L); assay: Binding affinity to human phosphorylated ABL1 F317L mutant (S229 to K512 residues) expressed in mammalian expression system after 60 mins by Kinomescan method
[22] = molecular target: Tyrosine-protein kinase ABL1 (Homo sapiens, UniProt P00519); assay: Inhibition of human ABL1 using EAIYAAPFAKKK as substrate preincubated for 20 mins followed by [gamma-33P]-ATP addition and measured after 120 mins by Hotspot assay
[23] = molecular target: Mast/stem cell growth factor receptor Kit (Homo sapiens, UniProt P10721); assay: Inhibition of human c-KIT assessed as residual activity at 10 uM using poly[Glu:Tyr] (4:1) as substrate preincubated for 20 mins followed by [gamma-33P]-ATP addition and measured after 120 mins by Hotspot assay relative to control
[24] = molecular target: CDK9/cyclin T1 (Homo sapiens) (UniProt O60563+P50750); assay: Inhibition of human CDK9/cyclin-T1 assessed as residual activity at 10 uM using KTFCGTPEYLAPEVRREPRILSEEEQEMFRDFDYIADWC as substrate preincubated for 20 mins followed by [gamma-33P]-ATP addition and measured after 120 mins by Hotspot assay relative to control; format: protein-complex assay
[25] = molecular target: Insulin-like growth factor 1 receptor (Homo sapiens) (UniProt P08069); assay: Inhibition of human IGF1R assessed as residual activity at 10 uM using KKKSPGEYVNIEFG as substrate preincubated for 20 mins followed by [gamma-33P]-ATP addition and measured after 120 mins by Hotspot assay relative to control
[26] = molecular target: Tyrosine-protein kinase JAK2 (Homo sapiens) (UniProt O60674); assay: Inhibition of human JAK2 assessed as residual activity at 10 uM using poly[Glu:Tyr] (4:1) as substrate preincubated for 20 mins followed by [gamma-33P]-ATP addition and measured after 120 mins by Hotspot assay relative to control

Serine/threonine-protein kinase Chk1, sequence (O14757 whole entry): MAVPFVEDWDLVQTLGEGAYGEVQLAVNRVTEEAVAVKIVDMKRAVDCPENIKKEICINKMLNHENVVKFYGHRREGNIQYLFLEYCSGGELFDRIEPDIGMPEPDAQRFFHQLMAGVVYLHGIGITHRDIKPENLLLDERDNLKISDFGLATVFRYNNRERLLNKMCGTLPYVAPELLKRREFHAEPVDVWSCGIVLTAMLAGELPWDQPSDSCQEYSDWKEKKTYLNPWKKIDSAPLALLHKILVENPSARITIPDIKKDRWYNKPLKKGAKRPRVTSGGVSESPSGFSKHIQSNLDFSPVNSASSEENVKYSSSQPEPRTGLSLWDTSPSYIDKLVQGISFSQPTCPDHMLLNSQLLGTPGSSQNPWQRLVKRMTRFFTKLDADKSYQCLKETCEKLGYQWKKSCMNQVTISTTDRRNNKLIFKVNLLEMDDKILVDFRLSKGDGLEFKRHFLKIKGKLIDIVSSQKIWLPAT
Tyrosine-protein kinase ABL1 (Homo sapiens, UniProt P00519), sequence (P00519 whole entry): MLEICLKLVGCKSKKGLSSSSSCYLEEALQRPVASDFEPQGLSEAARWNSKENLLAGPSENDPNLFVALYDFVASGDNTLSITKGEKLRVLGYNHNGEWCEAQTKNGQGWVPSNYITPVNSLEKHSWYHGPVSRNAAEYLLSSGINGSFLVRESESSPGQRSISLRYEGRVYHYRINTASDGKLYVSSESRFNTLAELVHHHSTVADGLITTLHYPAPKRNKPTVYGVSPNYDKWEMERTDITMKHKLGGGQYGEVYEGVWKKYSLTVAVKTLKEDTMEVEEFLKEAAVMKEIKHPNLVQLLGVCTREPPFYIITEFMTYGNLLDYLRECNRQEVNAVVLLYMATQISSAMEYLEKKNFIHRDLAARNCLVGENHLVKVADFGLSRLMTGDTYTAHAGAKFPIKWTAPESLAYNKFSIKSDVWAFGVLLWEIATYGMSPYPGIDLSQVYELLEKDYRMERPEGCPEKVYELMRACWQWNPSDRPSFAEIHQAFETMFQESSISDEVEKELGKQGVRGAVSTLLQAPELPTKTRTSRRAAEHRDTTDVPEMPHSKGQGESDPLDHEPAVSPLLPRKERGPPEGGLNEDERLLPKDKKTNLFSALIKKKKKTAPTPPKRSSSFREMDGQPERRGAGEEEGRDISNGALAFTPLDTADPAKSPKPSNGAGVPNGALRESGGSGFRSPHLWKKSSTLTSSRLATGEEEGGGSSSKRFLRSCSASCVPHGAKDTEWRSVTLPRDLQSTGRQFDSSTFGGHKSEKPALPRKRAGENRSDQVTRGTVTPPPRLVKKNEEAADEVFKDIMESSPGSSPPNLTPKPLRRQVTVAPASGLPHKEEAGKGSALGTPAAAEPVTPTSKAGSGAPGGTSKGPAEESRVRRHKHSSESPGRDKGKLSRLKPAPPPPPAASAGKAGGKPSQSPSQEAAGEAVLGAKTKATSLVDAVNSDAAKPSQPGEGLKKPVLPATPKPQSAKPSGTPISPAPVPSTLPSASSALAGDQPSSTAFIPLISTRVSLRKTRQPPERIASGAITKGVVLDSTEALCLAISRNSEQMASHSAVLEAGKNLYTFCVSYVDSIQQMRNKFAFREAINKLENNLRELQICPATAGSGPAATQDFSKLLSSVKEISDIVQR
Mitogen-activated protein kinase 1 (Homo sapiens), sequence (P28482 whole entry): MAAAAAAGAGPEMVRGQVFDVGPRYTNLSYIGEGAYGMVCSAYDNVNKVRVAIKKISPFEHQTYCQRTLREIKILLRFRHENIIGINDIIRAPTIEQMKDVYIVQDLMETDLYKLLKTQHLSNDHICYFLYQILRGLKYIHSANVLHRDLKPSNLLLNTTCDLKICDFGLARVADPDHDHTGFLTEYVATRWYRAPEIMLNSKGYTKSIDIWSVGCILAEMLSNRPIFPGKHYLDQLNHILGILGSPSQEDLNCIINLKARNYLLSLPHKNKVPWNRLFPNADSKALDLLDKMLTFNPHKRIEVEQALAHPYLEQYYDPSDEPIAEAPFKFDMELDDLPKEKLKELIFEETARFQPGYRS
Dual specificity mitogen-activated protein kinase kinase 1 (Homo sapiens), sequence (Q02750 whole entry): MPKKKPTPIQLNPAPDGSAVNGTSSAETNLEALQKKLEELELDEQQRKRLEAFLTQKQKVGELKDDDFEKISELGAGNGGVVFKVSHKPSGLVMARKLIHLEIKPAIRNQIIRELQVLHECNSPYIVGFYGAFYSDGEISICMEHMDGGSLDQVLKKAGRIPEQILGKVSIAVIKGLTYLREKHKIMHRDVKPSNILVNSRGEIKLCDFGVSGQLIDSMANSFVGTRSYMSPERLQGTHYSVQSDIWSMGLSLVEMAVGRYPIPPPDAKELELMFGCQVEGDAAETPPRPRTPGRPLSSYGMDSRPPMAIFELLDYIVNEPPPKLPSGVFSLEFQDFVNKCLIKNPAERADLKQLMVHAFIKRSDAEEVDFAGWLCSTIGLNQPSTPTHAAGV
Cyclin-dependent kinase 5/CDK5 activator 1 (Homo sapiens), sequence (Q00535 whole entry, the tested form may be a part): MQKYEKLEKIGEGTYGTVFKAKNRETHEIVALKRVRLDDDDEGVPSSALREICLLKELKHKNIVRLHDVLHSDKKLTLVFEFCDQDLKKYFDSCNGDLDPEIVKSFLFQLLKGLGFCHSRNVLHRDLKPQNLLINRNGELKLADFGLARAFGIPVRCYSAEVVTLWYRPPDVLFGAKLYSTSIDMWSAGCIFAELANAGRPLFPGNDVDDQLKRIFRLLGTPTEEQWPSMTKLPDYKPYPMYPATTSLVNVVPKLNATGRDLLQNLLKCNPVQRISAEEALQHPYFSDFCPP
Cyclin-dependent kinase 5/CDK5 activator 1 (Homo sapiens), sequence (Q15078 99-307 partner limits assumed): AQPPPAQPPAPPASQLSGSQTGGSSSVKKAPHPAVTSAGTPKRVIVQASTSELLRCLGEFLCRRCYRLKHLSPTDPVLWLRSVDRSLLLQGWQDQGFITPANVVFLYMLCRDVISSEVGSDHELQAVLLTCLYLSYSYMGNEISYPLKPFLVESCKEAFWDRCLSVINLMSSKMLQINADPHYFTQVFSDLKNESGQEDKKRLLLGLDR
Hepatocyte growth factor receptor (Homo sapiens), sequence (P08581 whole entry): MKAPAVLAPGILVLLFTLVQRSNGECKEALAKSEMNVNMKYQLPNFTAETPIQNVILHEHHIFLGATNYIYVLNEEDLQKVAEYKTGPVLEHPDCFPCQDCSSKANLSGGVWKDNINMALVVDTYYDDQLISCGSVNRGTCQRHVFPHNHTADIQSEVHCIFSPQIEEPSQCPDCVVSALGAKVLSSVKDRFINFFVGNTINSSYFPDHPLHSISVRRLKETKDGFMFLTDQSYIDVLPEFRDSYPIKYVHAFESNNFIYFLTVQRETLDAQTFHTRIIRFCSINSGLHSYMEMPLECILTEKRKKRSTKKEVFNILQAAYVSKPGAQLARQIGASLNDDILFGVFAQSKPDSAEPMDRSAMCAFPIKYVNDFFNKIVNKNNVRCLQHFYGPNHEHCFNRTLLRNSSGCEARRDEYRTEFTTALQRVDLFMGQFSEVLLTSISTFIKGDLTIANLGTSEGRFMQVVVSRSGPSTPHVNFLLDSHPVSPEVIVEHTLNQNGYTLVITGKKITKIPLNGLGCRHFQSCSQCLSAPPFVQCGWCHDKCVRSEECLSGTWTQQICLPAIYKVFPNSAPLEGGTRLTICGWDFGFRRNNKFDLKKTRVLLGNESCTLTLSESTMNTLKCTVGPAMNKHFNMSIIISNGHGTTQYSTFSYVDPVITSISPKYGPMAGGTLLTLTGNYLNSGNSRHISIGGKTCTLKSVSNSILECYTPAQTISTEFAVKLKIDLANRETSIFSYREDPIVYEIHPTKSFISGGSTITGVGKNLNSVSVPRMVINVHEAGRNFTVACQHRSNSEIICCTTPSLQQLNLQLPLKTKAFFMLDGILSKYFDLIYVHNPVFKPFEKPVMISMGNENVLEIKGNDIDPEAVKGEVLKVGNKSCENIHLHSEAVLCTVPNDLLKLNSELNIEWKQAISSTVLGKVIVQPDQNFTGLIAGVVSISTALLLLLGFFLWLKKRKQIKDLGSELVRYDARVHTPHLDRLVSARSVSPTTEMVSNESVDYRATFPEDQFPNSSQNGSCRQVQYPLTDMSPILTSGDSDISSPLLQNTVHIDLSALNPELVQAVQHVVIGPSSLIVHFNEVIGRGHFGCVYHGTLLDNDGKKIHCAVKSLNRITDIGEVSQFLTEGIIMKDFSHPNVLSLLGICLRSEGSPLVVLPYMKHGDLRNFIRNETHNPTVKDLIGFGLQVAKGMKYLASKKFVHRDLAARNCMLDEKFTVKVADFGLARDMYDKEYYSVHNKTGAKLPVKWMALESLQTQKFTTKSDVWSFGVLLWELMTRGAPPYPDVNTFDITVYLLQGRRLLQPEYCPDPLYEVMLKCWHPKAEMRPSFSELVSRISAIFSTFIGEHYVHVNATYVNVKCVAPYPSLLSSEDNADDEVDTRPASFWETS
Tyrosine-protein kinase ABL1 (Homo sapiens, UniProt P00519, F317L), sequence (P00519 whole entry F317L, the tested form may be a part): as the sequence (P00519 whole entry) above, with F317L counted along it
Proto-oncogene tyrosine-protein kinase Src, sequence (P12931 2-536 limits assumed): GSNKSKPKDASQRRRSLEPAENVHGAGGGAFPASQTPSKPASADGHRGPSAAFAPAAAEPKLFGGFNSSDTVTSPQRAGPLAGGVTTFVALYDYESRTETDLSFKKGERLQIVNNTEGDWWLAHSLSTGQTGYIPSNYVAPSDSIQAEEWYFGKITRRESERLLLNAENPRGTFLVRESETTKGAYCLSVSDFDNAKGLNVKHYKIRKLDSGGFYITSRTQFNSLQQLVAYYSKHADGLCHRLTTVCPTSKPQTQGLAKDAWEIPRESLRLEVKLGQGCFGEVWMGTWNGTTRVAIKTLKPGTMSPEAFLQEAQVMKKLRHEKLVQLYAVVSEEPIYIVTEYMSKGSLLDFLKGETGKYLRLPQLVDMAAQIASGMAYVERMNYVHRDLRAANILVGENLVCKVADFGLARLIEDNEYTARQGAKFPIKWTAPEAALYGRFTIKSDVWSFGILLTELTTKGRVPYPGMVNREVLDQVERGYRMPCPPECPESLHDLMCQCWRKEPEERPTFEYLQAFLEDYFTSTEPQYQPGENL

CN1CCC(Nc2ccc(C(=O)Nc3cc(-c4cc(C#N)cs4)n[nH]3)cc2)CC1 gave an Activity [1] of 91.9%, an Activity (MV4-11 [2]) of 21.77% and an Activity [3] of 102%. It also gave an IC50 ([4]; read-out: IC50) of 1530 nM, an IC50 ([4]; read-out: pIC50 (converted)) of 1580 nM and a half-life at 1 µM [5] of 61.9 min. It also gave a viability at 0.2 µM (MV4-11 [6]) of 48.8%, an Activity (MV4-11 [7]) of 26.68% and an Activity [8] of 74.5%. For the same molecule, the Activity [9] was 17.9%, the Kd [10] was 84 nM and the viability at 0.05 µM (MV4-11 [11]) was 59.6%. For the same molecule, the half-life at 1 µM [12] was 8.1 min, the inhibition of growth at 10 µM (K562) was 1.3% and the inhibition of growth at 10 µM (MV4-11 [13]) was 89.9%. For the same molecule, the Activity (MV4-11 [14]) was “Dose-dependent effect”, the IC50 [15] was 3640 nM and the viability at 0.02 µM (MV4-11 [16]) was 68.6%. The Activity (MV4-11 [17]) was 25.33%, the Activity (MV4-11 [18]) was 11.3% and the viability at 0.1 µM (MV4-11 [19]) was 56.8%. It also gave an Activity [20] of 60.4%, a Kd [21] of 460 nM and an IC50 ([22]; read-out: IC50) of 931 nM. The IC50 ([22]; read-out: pIC50 (converted)) was 1000 nM, the Activity [23] was 14.4% and the Activity [24] was 68.7%. For the same molecule, the Activity [25] was 94.8% and the Activity [26] was 80.7%.

— ChEMBL document CHEMBL4330071 (Eur J Med Chem, 2019)
